One series relates to Sgp130FC mice. The experiment in a line: Sgp130FC mice treated with Compound 1. It counts as in vivo. As to conditions: 7.5 mg/kg ip twice/week, four weeks. On the procedure: Sgp130FC mice were injected (ip) with Compound 1 for four weeks (7.5 mg/kg, twice/week). FIGS. 6A-6B show the qRT-PCR analysis of miR-122 levels in plasma (6A), and in the livers (6B) after 4 weeks treatment with saline (as a control) and Compound 1. MicroRNA-18 was used as a negative control and its plasma and liver levels were not affected following treatment with Compound 1. The effect seen on this microRNA in FIG. 6A is not significant compared to the significant effect seen on miR-122.
Compound 1 and AntagomiR injections to mice. C57BL/6 male mice, 7-8 weeks old, or Sgp130FC, 9-month-old male mice, were injected i.p. with 7.5 mg/kg Compound 1 dissolved in saline and 3% DMSO. Saline was injected as control. Mice were hydrodynamic tail vain injected with antagomiR-122 or antagomiR-control (negative control) (5 μg/mouse in 1.5 ml saline). Mice were sacrificed according to the legend of the figure describing the experimental results and the livers, white adipose and skeletal muscle tissues were frozen in liquid nitrogen or in OCT embedded frozen blocks, for further RNA and histologic analysis. AntagomiRs were obtained from Sigma Aldrich, see Table 3.

Another series in a line: Plasma half-life. It counts as in vivo, mice. Conditions: mouse, read-out: plasma t1/2 (converted).
The nature of series [1]: Cellular toxicity assay, CEM cells. It counts as cell-based. As to conditions: human, CEM cells (human lymphoblastoid), compared to cycloheximide (+ control). On the procedure: (§1) The toxicity of the compounds was assessed in human PBM, CEM (human lymphoblastoid), and Huh-7 cells, as described previously (see Schinazi R. F., Sommadossi J.-P., Saalmann V., Cannon D. L., Xie M.-Y., Hart G. C., Smith G. A. & Hahn E. F. Antimicrob. Agents Chemother. 1990, 34, 1061-67). Cycloheximide was included as positive cytotoxic control, and untreated cells exposed to solvent were included as negative controls. The cytotoxicity IC50 was obtained from the concentration-response curve using the median effective method described previously (see Chou T.-C. & Talalay P. Adv. Enzyme Regul. 1984, 22, 27-55; Belen'kii M. S. & Schinazi R. F. Antiviral Res. 1994, 25, 1-11).

Series [2] in a line: Cellular toxicity assay, Huh-7 cells. Format: cell-based. Conditions: human, compared to cycloheximide (+ control). On the procedure: as §1
For another series, the system named is miR-122. The experiment in a line: Expression and secretion of RORα-regulated microRNA in Huh-7 cells (qRT-PCR). Format: cell-based, human. As for the experimental part:
Secreted microRNA levels in the medium of Huh-7 cells were analyzed by qRT-PCR and were normalized to spiked C. elegans miR-39. miR-18 and miR-93 served as controls for secreted microRNA and were not affected following Compound 1 addition.
RNA extraction and quantitative Real-Time PCR analysis. Total RNA, including small RNAs, were isolated from […] of plasma or culture media samples using the miRNeasy Mini kit (Qiagen, Valencia, CA, USA) with 2 minor modifications. First, 200 μl of plasma or culture media were lysed with 1 ml of Qiazol solution. Second, a 50 pmol/1 of synthesized single strand Caenorhabditis elegans miRNA (cel-miR-39) was added as the spike-in control to monitor extraction efficiency. The remainder of the RNA extraction was performed according to the manufacturer's instructions. miRNAs were eluted with 30 μl of RNase-free water. Total RNA, including miRNAs, from cells or tissues were isolated using TRIzol reagent (Invitrogen, Carlsbad, CA, USA). cDNA was synthesized using the Quanta Biosciences qScript™ cDNA Synthesis Kit (95047-100) for mRNA analysis, and using the qScript™ microRNA cDNA Synthesis Kit (95107-100) for miRNAs analysis. qRT-PCR of miRNAs and mRNA was performed using the ABI 7900 HT Real-Time PCR System and a SYBR Green PCR Kit: Quanta Cat. #84018 and #84071 respectively. The fold expression and statistical significance were calculated using the 2-ΔΔ Ct method. All experiments were performed in triplicates.

Entries after “also recorded” stand apart in the source; their conditions may differ.

Turning to `O=C1Nc2cc(C(=O)N3CCC(Cc4ccccc4)CC3)ccc2Nc2ccccc21` [Compound 1], in the series on Sgp130FC mice, the “Liver and muscle triglyceride levels” value is “reduces liver and muscle triglyceride levels”; the “MicroRNA-18 plasma and liver levels (negative control)” value was “not affected”; the “miR-122 expression (plasma, liver)” value is “increases miR-122 expression”. The half-life in the series “Plasma half-life” is 2.7 h. The 50% cytotoxic concentration (CC50) in series [1] was found to be 11 µM. Half-maximal cytotoxicity in series [2] (CC50) was put at 10.4 µM. In the series with miR-122 (1 μM, 24 hours), the “Secreted control microRNA (miR-18, miR-93) in Huh-7 medium” value is listed as “not affected” and the “Secreted miR-122 level in Huh-7 medium” value is on record as “increases secretion of miR-122”. For the same compound, in the series on miR-122 (Huh7, 16 h exposure), the “Cellular miR-122 levels” value was “did not change” and the “miR-122 secreted to the medium” value is on record as “significant miR-122 was secreted to the medium; also recorded: significant amount of MIR122 was secreted to the medium”.
